Test results reported in US20070110720A1, “Vectors, mutant viruses and methods for generating mutant viruses” (priority 2003, published 2007).
Entries after “also recorded” stand apart in the source; their conditions may differ.

Legend:
confluent 3T6 cells = format: cell-based; conditions: 50 μM CB1954 alone
C8161 cells = format: cell-based, human; conditions: 50 μM CB1954 alone
A2780 xenografts = test: Naked DNA experiment: CMV-ntr plasmid and CB1954 in xenograft tumours; format: in vivo, mice; conditions: single agent: CMV-ntr 0.2 mg DNA intratumoural Day 0, or CB1954 80 mg/kg intra-peritoneal Day 2
Protocol: In order to check the alterations in tumour growth are due to the virus itself and not a result of the CMV-ntr plasmid DNA that had been introduced to the HSV 1716 virus, an experiment was set up looking at the effect of the CMV-ntr plasmid DNA alone and in combination with the prodrug CB1954.
Mice were randomised into treatment groups of 6 animals each when tumour diameters are approximately 5 mm (this is Day 0). […] Two groups of mice were administered CMV-ntr plasmid by direct intratumoural injection at a dose of 0.2 mg DNA per injection. One of these groups was then administered with a single dose of 80 mg/kg of CB1954 on Day 2 by intra-peritoneal injection. […] Animals were weighed daily (FIG. 23) and daily caliper measurements performed until the tumour sizes were in the region of 20 mm by 20 mm. Tumour volumes were estimated from these measurements (volume=[…]) (FIG. 24). In addition any toxicity from these administered agents was determined.

A2780 xenograft = test: Scheduling experiment: tumour volume after virus and CB1954; format: in vivo, athymic nude mice
Protocol: Mice were randomized into treatment groups (treatment regimes shown in Table 2) of 3 animals when tumour diameters were approximately 5 mm (tumour volume […]).
(§1) The treatment groups were administered with a single direct intratumoural injection of the virus and dose determined for that group. The virus was diluted PBS+10% serum. ‘No virus’ control groups received an intratumoural injection of 100 μl of PBS+10% serum. This day was designated as Experimental Day 0.
(§2) Injections of CB1954 were given to the appropriate groups at days 2, 10 and 15. A dose of 80 mg/kg—the equivalent of approx. 2 mg per mouse—was given. The powdered form of the CB1954 drug (from Sigma) was dissolved in acetone to 10% of the final volume (10 μl per 2 mg). The volume was then made up to 2 mg CB1954 in 100 μl using peanut oil. A syringe was used to mix the drug as peanut oil is thick and viscous. The drug was made up fresh every time.
(§3) The appropriate groups were then injected intra-peritoneal with this solution. Control groups which were not receiving drug were injected intra-peritoneal with a 100 μl solution of 10% acetone in peanut oil.

[1] = Scheduling experiment: tolerability of injections; format: in vivo, athymic nude mice; conditions: 80 mg/kg intra-peritoneal in 10% acetone/peanut oil
Protocol: as §1
Some tumours bleed slightly after injection but not to a great degree. […] In all the tumours that bleed slightly, the following day the healing process had begun and within 3-5 days there was little evidence of any puncture wound on any tumour.
as §2, §3

Compound: NC(=O)c1cc(N2CC2)c([N+](=O)[O-])cc1[N+](=O)[O-] [CB1954]
- cell death (confluent 3T6 cells): no effect; also recorded: does not result in any significant cell death
- cell death (C8161 cells): no effect
- anti-tumour activity as determined by tumour regression (A2780 xenografts): neither the CMV-ntr alone, CB1954 alone or the combination of both CMV-ntr and CB1954, has any anti-tumour activity
- effect on tumour growth (A2780 xenograft; CB1954 alone, 80 mg/kg intra-peritoneal, no virus (groups 5, 6, 7, 13)): little effect on tumour growth
- tumour growth delay by timing of prodrug (A2780 xenograft; CB1954 given Day 2 post viral injection versus Day 10): tumour growth was not delayed as much as if the drug was given at a later date
- body weight after intra-peritoneal injection [1]: did not lose any body weight
- swelling or irritation at the site of injection [1]: No swelling or irritation
